From ChEMBL document CHEMBL1152749, “Haemolytic activity, cytotoxicity and membrane cell permeabilization of semi-synthetic and natural lupane- and oleanane-type saponins” (Bioorg Med Chem, 2009)

Tests used:
[1] = Toxicity in sheep erythrocytes assessed as induction of hemolysis; type: cell-based, Ovis aries, Erythrocyte; conditions: read-out: HD50 (the source's name)
[2] = Cell membrane permeabilization in human WS1 cells assessed as drug level causing decrease in calcein fluorescence; type: ADME, cell-based
DLD-1 [3] = assay: Cell membrane permeabilization in human DLD1 cells assessed as drug level causing decrease in calcein fluorescence; type: ADME, cell-based
A549 [4] = assay: Cell membrane permeabilization in human A549 cells assessed as drug level causing decrease in calcein fluorescence; type: ADME, cell-based
[5] = Cytotoxicity against human WS1 cells after 48 hrs by resazurin reduction test; type: cell-based; conditions: WS1, 48 h
A549 [6] = assay: Cytotoxicity against human A549 cells after 48 hrs by resazurin reduction test; type: functional, cell-based; conditions: A549, 48 h
DLD-1 [7] = assay: Cytotoxicity against human DLD1 cells after 48 hrs by resazurin reduction test; type: functional, cell-based; conditions: DLD-1, 48 h

IC50 [2] [µM]	IC50 (DLD-1 [3]) [µM]	IC50 (A549 [4]) [µM]	Structure (SMILES)	HC50 [1] [µM]	IC50 [5] [µM]	IC50 (A549 [6]) [µM]	IC50 (DLD-1 [7]) [µM]
> 200	> 200	> 200	C=C(C)[C@@H]1CC[C@]2(CO)CC[C@]3(C)[C@H](CC[C@@H]4[C@@]5(C)CC[C@H](O[C@H]6O[C@H](CO)[C@@H](O)[C@H](O)[C@@H]6O)C(C)(C)[C@@H]5CC[C@]43C)[C@@H]12	> 100	–	–	–
> 200	> 200	> 200	C=C(C)[C@@H]1CC[C@]2(C(=O)O)CC[C@]3(C)[C@H](CC[C@@H]4[C@@]5(C)CC[C@H](O[C@@H]6O[C@H](CO)[C@@H](O)[C@H](O)[C@H]6O)C(C)(C)[C@@H]5CC[C@]43C)[C@@H]12	> 100	> 100	> 100	32
> 200	> 200	> 200	C=C(C)[C@@H]1CC[C@]2(C(=O)O)CC[C@]3(C)[C@H](CC[C@@H]4[C@@]5(C)CC[C@H](O[C@H]6O[C@H](CO)[C@@H](O)[C@H](O)[C@@H]6O)C(C)(C)[C@@H]5CC[C@]43C)[C@@H]12	> 100	–	–	–
> 200	> 200	> 200	C=C(C)[C@@H]1CC[C@]2(C(=O)O)CC[C@]3(C)[C@H](CC[C@@H]4[C@@]5(C)CC[C@H](O[C@@H]6O[C@H](CO)[C@H](O)[C@H](O)[C@H]6O)C(C)(C)[C@@H]5CC[C@]43C)[C@@H]12	> 100	> 100	> 100	> 100
> 200	> 200	> 200	C=C(C)[C@@H]1CC[C@]2(C(=O)O)CC[C@]3(C)[C@H](CC[C@@H]4[C@@]5(C)CC[C@H](O[C@@H]6OC[C@@H](O)[C@H](O)[C@H]6O)C(C)(C)[C@@H]5CC[C@]43C)[C@@H]12	> 100	–	–	–
> 200	> 200	> 200	C=C(C)[C@@H]1CC[C@]2(CO)CC[C@]3(C)[C@H](CC[C@@H]4[C@@]5(C)CC[C@H](O[C@@H]6O[C@H](CO)[C@@H](O)[C@H](O)[C@H]6O)C(C)(C)[C@@H]5CC[C@]43C)[C@@H]12	> 100	> 100	> 100	> 100
> 200	> 200	> 200	C=C(C)[C@@H]1CC[C@]2(CO)CC[C@]3(C)[C@H](CC[C@@H]4[C@@]5(C)CC[C@H](O[C@@H]6OC[C@H](O)[C@H](O)[C@H]6O)C(C)(C)[C@@H]5CC[C@]43C)[C@@H]12	> 100	> 100	> 100	> 100
> 200	> 200	> 200	C=C(C)[C@@H]1CC[C@]2(C(=O)O)CC[C@]3(C)[C@H](CC[C@@H]4[C@@]5(C)CC[C@H](O[C@@H]6OC[C@H](O)[C@H](O)[C@H]6O)C(C)(C)[C@@H]5CC[C@]43C)[C@@H]12	> 100	19	12	11
> 200	> 200	> 200	C=C(C)[C@@H]1CC[C@]2(CO[C@@H]3O[C@H](CO)[C@@H](O)[C@H](O)[C@H]3O)CC[C@]3(C)[C@H](CC[C@@H]4[C@@]5(C)CC[C@H](O[C@@H]6O[C@@H](C)[C@H](O)[C@@H](O)[C@H]6O)C(C)(C)[C@@H]5CC[C@]43C)[C@@H]12	> 100	–	–	–
51	54	40	CC1(C)CC[C@]2(C(=O)O)CC[C@]3(C)C(=CC[C@@H]4[C@@]5(C)CC[C@H](O[C@@H]6OC[C@H](O)[C@H](O)[C@H]6O)[C@@](C)(CO)[C@@H]5CC[C@]43C)[C@@H]2C1	12	30	58	57
> 200	> 200	> 200	C=C(C)[C@@H]1CC[C@]2(C(=O)O[C@@H]3O[C@H](CO)[C@@H](O)[C@H](O)[C@H]3O)CC[C@]3(C)[C@H](CC[C@@H]4[C@@]5(C)CC[C@H](O[C@@H]6O[C@H](CO)[C@@H](O)[C@H](O)[C@H]6O)C(C)(C)[C@@H]5CC[C@]43C)[C@@H]12	> 100	–	–	–
> 200	> 200	> 200	C=C(C)[C@@H]1CC[C@]2(CO[C@@H]3O[C@H](CO)[C@@H](O)[C@H](O)[C@H]3O)CC[C@]3(C)[C@H](CC[C@@H]4[C@@]5(C)CC[C@H](O[C@@H]6OC[C@H](O)[C@H](O)[C@H]6O)C(C)(C)[C@@H]5CC[C@]43C)[C@@H]12	> 100	–	–	–
> 200	> 200	> 200	C=C(C)[C@@H]1CC[C@]2(C(=O)O)CC[C@]3(C)[C@H](CC[C@@H]4[C@@]5(C)CC[C@H](O[C@@H]6O[C@@H](C)[C@H](O)[C@@H](O)[C@H]6O)C(C)(C)[C@@H]5CC[C@]43C)[C@@H]12	> 100	31	2.6	3.9
> 200	> 200	> 200	C=C(C)[C@@H]1CC[C@]2(C(=O)O[C@@H]3O[C@H](CO)[C@@H](O)[C@H](O)[C@H]3O)CC[C@]3(C)[C@H](CC[C@@H]4[C@@]5(C)CC[C@H](O)C(C)(C)[C@@H]5CC[C@]43C)[C@@H]12	> 100	–	–	–
> 200	> 200	> 200	C=C(C)[C@@H]1CC[C@]2(CO)CC[C@]3(C)[C@H](CC[C@@H]4[C@@]5(C)CC[C@H](O[C@@H]6O[C@@H](CO)[C@H](O)[C@H]6O)C(C)(C)[C@@H]5CC[C@]43C)[C@@H]12	> 100	> 100	> 100	> 100
2.8	4	3	C[C@@H]1O[C@@H](O[C@H]2[C@H](O[C@H]3CC[C@]4(C)[C@H]5CC=C6[C@@H]7CC(C)(C)CC[C@]7(C(=O)O)CC[C@@]6(C)[C@]5(C)CC[C@H]4C3(C)C)OC[C@H](O)[C@@H]2O)[C@H](O)[C@H](O)[C@H]1O	2	14	15	30
> 200	> 200	> 200	C=C(C)[C@@H]1CC[C@]2(C(=O)O)CC[C@]3(C)[C@H](CC[C@@H]4[C@@]5(C)CC[C@H](O[C@@H]6O[C@@H](CO)[C@H](O)[C@H]6O)C(C)(C)[C@@H]5CC[C@]43C)[C@@H]12	> 100	> 100	> 100	> 100
> 200	> 200	> 200	C=C(C)[C@@H]1CC[C@]2(C(=O)O[C@@H]3O[C@H](CO)[C@@H](O)[C@H](O)[C@H]3O)CC[C@]3(C)[C@H](CC[C@@H]4[C@@]5(C)CC[C@H](O[C@@H]6OC[C@H](O)[C@H](O)[C@H]6O)C(C)(C)[C@@H]5CC[C@]43C)[C@@H]12	> 100	–	–	–
> 200	> 200	> 200	C=C(C)[C@@H]1CC[C@]2(C(=O)O)CC[C@]3(C)[C@H](CC[C@@H]4[C@@]5(C)CC[C@H](O[C@H]6OC[C@@H](O)[C@@H](O)[C@@H]6O)C(C)(C)[C@@H]5CC[C@]43C)[C@@H]12	> 100	47	10	17
> 200	> 200	> 200	C=C(C)[C@@H]1CC[C@]2(CO[C@@H]3O[C@H](CO)[C@@H](O)[C@H](O)[C@H]3O)CC[C@]3(C)[C@H](CC[C@@H]4[C@@]5(C)CC[C@H](O[C@@H]6O[C@H](CO)[C@@H](O)[C@H](O)[C@H]6O)C(C)(C)[C@@H]5CC[C@]43C)[C@@H]12	> 100	–	–	–
> 200	> 200	> 200	C=C(C)[C@@H]1CC[C@]2(CO[C@@H]3O[C@@H](C)[C@H](O)[C@@H](O)[C@H]3O)CC[C@]3(C)[C@H](CC[C@@H]4[C@@]5(C)CC[C@H](O[C@@H]6O[C@@H](C)[C@H](O)[C@@H](O)[C@H]6O)C(C)(C)[C@@H]5CC[C@]43C)[C@@H]12	> 100	–	–	–
> 200	> 200	> 200	C=C(C)[C@@H]1CC[C@]2(C(=O)O[C@@H]3O[C@H](CO)[C@@H](O)[C@H](O)[C@H]3O)CC[C@]3(C)[C@H](CC[C@@H]4[C@@]5(C)CC[C@H](O[C@@H]6O[C@@H](C)[C@H](O)[C@@H](O)[C@H]6O)C(C)(C)[C@@H]5CC[C@]43C)[C@@H]12	> 100	–	–	–
> 200	> 200	> 200	C=C(C)[C@@H]1CC[C@]2(C(=O)O[C@@H]3O[C@@H](C)[C@H](O)[C@@H](O)[C@H]3O)CC[C@]3(C)[C@H](CC[C@@H]4[C@@]5(C)CC[C@H](O[C@@H]6O[C@@H](C)[C@H](O)[C@@H](O)[C@H]6O)C(C)(C)[C@@H]5CC[C@]43C)[C@@H]12	85	–	–	–

Structure (SMILES)	IC50 [2] [µM]	IC50 (DLD-1 [3]) [µM]	IC50 (A549 [4]) [µM]	HC50 [1] [µM]	IC50 [5] [µM]	IC50 (A549 [6]) [µM]	IC50 (DLD-1 [7]) [µM]
C=C(C)[C@@H]1CC[C@]2(C(=O)O)CC[C@]3(C)[C@H](CC[C@@H]4[C@@]5(C)CC[C@H](O)C(C)(C)[C@@H]5CC[C@]43C)[C@@H]12 [BETULINIC ACID]	> 200	> 200	> 200	> 100	–	–	–
C=C(C)[C@@H]1CC[C@]2(CO)CC[C@]3(C)[C@H](CC[C@@H]4[C@@]5(C)CC[C@H](O)C(C)(C)[C@@H]5CC[C@]43C)[C@@H]12 [BETULIN]	> 200	> 200	> 200	> 100	–	–	–
